In series [1] the test system is human lymphoma RS11846 cell line. The series is described as follows: Apoptosis, Annexin V-FITC and propidium iodide assay. Format: cell-based. The settings on record: Homo sapiens, Annexin V-FITC and propidium iodide assay, read-out: EC50 RS11846.
Procedure: The apoptotic activity of the compounds against RS11846 cells was assessed by staining with Annexin V- and propidium iodide (PI). Lymphoma cell line, RS11846, was cultured in RPMI 1640 medium (Mediatech Inc., Herndon, Va. 20171) containing 10% fetal bovine serum (Mediatech Inc., Herndon, Va. 20171) and Penicillin/Streptomycin (Mediatech Inc., Herndon, Va. 20171). […] The percentage of viable cells was determined by FITC-Annexin V- and propidium iodide (PI)-labeling, using an Apoptosis Detection kit (BioVision Inc.), and analyzing stained cells by flow cytometry (FACSort; Bectin-Dickinson, Inc.; Mountain View, Calif.). Cells that were annexin-V-negative and PI-negative were considered viable.
The test system of series [2] is BP3 human B-cell lymphoma cell line. Nature of the series: Annexin V-FITC and propidium iodide assay. The settings on record: for pEC50: Annexin V-FITC and propidium iodide assay, read-out: EC50 BP3. Format: cell-based.
A short description of series [3]: Chemical stability of solid compounds at room temperature (HPLC, LCMS). The settings on record: in air, Apogossypol in the absence of ascorbic acid. From the text:
The stability of compound was monitored using a combination of HPLC and LCMS.

Another series addresses Bcl-2 (Homo sapiens, UniProt P10415). Nature of the series: Competitive fluorescence polarization assay (FPA), Bim BH3 peptide. Format: binding. (In general: In fluorescence polarisation assays a small probe gives low polarisation when free and higher when bound to something large.)
The subject of the next series is H1299 cell line. The series is described as follows: Cell viability, ATP-LITE assay. The note with it: Homo sapiens, NCI-H1299. The class given is cell-based, human. The method, boiled down:
(§1)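 Human cancer lines were seeded at 2000 (H460, H1299), 3000 (PC3) or 10,000 (RS11846) cells/well in F12 or RPMI1640 with 5% FBS. Compounds were added in 0.1% DMSO 24 h after seeding. Viability was read by ATP-LITE luminescence after 72 h and normalized to DMSO controls.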

For the next series, the system named is PC3ML cells. The series is described as follows: Cell viability, ATP-LITE assay. The class given is cell-based, human. The note with it: Homo sapiens, PC3-ML, Table 3; ATP-LITE assay; heading: EC50 PC3ML; read-out: EC50 PC3ML. Summed up: as §1
A short description of a further series: Plasma stability. The class given is in vitro ADME, rat. The note with it: for Plasma stability (T = 1 h): Table 6, rat plasma. The method, then: Plasma Stability. A 20 μL aliquot of a 10 mM solution in DMSO of the test compound was added to 2.0 mL of heparinized rat plasma (Lampire, P1-150N) to obtain a 100 μM final solution. The mixture was incubated for 1 h at 37.5° C. Aliquots of 100 μL were taken (0, 30 min, 1 h) and diluted with 200 μL of MeOH containing internal standard.

Series [4] can be described thus: Liver microsomal stability. The class given is in vitro ADME, rat. The note with it: Table 6; rat liver microsomes, 1 h. The source says: Liver Microsomal Stability.
(Microsomes from liver hold many membrane-bound enzymes, among them those of drug oxidation.)

For series [5], the target named is T1, BCL-XL (Homo sapiens, UniProt Q07817). The series is described as follows: Isothermal titration calorimetry (ITC). Format: binding. The method, then: Titrations were performed using a VP-ITC or ITC200 calorimeter from Microcal (Northampton, Mass.). BCL-XL was used at concentrations between 25 and 100 μM in 20 mM sodium phosphate buffer (pH 7.4) and 5-10% DMSO. Titrants were used at concentrations 10-15 fold of that of the protein in the same buffer. Titrations were carried out at 25° C. Data were analyzed using Microcal Origin software provided by the ITC manufacturer (Microcal, Northampton, Mass.).
Target sequence in this assay (Q07817 whole entry): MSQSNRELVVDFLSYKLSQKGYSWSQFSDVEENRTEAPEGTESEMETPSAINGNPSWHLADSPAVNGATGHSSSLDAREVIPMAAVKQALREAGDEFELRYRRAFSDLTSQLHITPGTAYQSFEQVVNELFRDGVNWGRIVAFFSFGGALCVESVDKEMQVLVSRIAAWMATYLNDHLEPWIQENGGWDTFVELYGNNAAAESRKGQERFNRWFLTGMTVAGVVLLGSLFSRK
On the technique in general: Isothermal titration calorimetry measures the heat released or taken up as one component is titrated into another.

Series [6] has as its target T1, BCL-XL. Nature of the series: Competitive fluorescence polarization assay (FPA), Bak BH3 peptide. The class given is binding. More on the design: 100 nM GST-BCL-XL ΔTM protein. The method, boiled down: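 100 nM GST-BCL-XL ΔTM preincubated with compound in PBS pH 7.4 for 10 min at room temperature, then FITC-Bak BH3 peptide added. Polarization read after 10 min. IC50 from sigmoidal dose-response fit; mean ± SE of three independent experiments.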
Target sequence in this assay (Q07817 1-209 limits assumed): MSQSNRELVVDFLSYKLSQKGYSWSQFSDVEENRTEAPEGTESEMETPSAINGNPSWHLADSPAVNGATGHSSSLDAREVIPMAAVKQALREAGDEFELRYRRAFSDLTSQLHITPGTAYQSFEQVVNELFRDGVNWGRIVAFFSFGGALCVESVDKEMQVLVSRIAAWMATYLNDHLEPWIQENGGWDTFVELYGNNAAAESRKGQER

Series [7] concerns Bax/Bak double knockout mouse embryonic fibroblast cells (MEF/DKO). Nature of the series: FITC-Annexin V/PI cytotoxicity in Bax/Bak double knockout cells. The note with it: 10 μM. Format: cell-based.
Procedure: MEF/WT and MEF/DKO cells were seeded in 24-well plate at a seeding density of half a million per well (in 1 ml of DMEM medium supplemented by 10% FCS). […] On the following day, floating cells were pooled with adherent cells harvested after brief incubation with 0.25% Trypsin/EDTA solution (Gibco/In-Vitrogen Inc.). Cells were centrifuged and supernatant was discarded, and cell pellet was re-suspended with 0.2 ml of Annexin-V binding buffer, followed by addition of 1 μl Annexin-FITC and 1 μl PI (propidium iodide). The percentage of viable cells was determined by a 3-color FACSort instrument and data analyzed by Flow-Jo program, scoring Annexin V-negative, PI-negative as viable cells.
The next series addresses Mcl-1 (Homo sapiens, UniProt Q07820). The series is described as follows: Competitive fluorescence polarization assay (FPA), Bim BH3 peptide. The class given is binding.
The target of the next series is T2, Bfl-1 (Homo sapiens, UniProt Q16548).
T2 sequence (Q16548 1-175): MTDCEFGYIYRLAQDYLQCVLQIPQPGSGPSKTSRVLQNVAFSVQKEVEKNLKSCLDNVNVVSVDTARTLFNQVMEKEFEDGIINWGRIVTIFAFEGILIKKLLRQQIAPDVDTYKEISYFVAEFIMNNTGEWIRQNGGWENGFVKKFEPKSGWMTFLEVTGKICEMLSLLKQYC
Nature of the series: Competitive fluorescence polarization assay (FPA). Format: binding.

A further series has as its system B6Bcl-2 transgenic mice. Summed up:
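B6 line BCL-2 transgenic mice (human BCL-2 fused to IgH locus/enhancer, Balb/c background) sacrificed 24 h post-treatment by lethal i.p. Avertin. Spleen removed and weighed, fixed 3 days in z-FIX for H&E and TUNEL histology.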

The subject of series [8] is H460 human lung cell line. Nature of the series: Cell viability, ATP-LITE assay. The note with it: for pIC50: read-out: IC50 inhibiting cell growth, H460. The class given is cell-based. Summed up:
as §1

Series [9] has as its target T1, BCL-XL. The series is described as follows: 1D 1H-NMR binding assay. Further details: key to 1D-^1H NMR: +++, Very Active; ++, Active; +, Mild; −, Weak. The note with it: Table 3; BCL-XL 25 μM, compound 200 μM. The method, then: By observing the aliphatic region of the spectra, binding could be readily detected due to chemical shift changes in active site methyl groups of Ile, Leu, Thr, Val or Ala (region between −0.8 and 0.3 ppm). All experiments were performed with a 600 MHz spectrometer Bruker Avance 600 equipped with four rf channels and z-axis pulse-field gradients.
Target sequence in this assay (Q07817 whole entry): as the sequence (Q07817 whole entry) above

The test system of the next series is Balb/c mice. From the text:
Upon conclusion of the study, mice were euthanized by CO2, and vital organs were harvested and fixed with z-FIX solution for 3 days at room temperature, rinsed in PBS three times, for further histological evaluation.

One may read the pEC50 as −log10 of the EC50, conventionally taken in molar units. What is called pIC50 is the negative decadic logarithm of the IC50, by convention in mol/L. As a reminder, the pKd is the Kd on a negative log10 scale, so that one unit is a factor of ten.

The structures appear in SMILES notation. pEC50, pIC50, pKd: −log10 of the molar value. Where two headings read alike, the source gives them in different places.

Bcl-2, sequence (P10415 whole entry): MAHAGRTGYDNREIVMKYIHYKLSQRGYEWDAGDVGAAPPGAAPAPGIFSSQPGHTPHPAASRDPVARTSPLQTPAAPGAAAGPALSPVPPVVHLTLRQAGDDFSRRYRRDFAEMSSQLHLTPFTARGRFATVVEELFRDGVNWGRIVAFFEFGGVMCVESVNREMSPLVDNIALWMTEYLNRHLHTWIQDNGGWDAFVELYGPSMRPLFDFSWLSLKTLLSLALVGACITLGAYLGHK
Mcl-1, sequence (Q07820 whole entry): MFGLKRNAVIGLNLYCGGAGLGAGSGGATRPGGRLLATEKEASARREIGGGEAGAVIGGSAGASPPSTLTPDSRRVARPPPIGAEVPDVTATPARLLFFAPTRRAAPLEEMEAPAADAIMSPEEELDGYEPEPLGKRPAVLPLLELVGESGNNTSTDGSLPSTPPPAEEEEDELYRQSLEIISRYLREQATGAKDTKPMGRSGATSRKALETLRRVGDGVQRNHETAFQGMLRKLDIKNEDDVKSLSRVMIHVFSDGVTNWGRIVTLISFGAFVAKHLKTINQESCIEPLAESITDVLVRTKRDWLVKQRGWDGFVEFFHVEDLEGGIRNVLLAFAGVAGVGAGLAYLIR

`CCc1ccc(CCNC(=O)c2c(O)c(O)cc3c(O)c(-c4c(C)cc5c(C(=O)NCCc6ccc(CC)cc6)c(O)c(O)cc5c4O)c(C)cc23)cc1` [Compound 8q, N^5,N^5′-bis(4-ethylphenethyl)-1,1′,6,6′,7,7′-hexahydroxy-3,3′-dimethyl-2,2′-binaphthyl-5,5′-dicarboxamide]: the pEC50 was 5.24 to 5.52 in series [1]; 5.52 in [1] (Table 3, heading: EC50 RS11846); 6.70 in [2] (Homo sapiens, B-cell, Table 3); 6.44 in the series on H1299 cell line (Table 3, ATP-LITE assay, read-out: EC50 H1299); 5.77 with PC3ML cells; 6.40 in [8] (Homo sapiens, NCI-H460, Table 3, ATP-LITE assay, read-out: EC50 H460). Moreover, the pIC50 was 6.70 in series [2] (Homo sapiens, B-cell, read-out: IC50 inhibiting cell growth, BP3); 6.17 on Bcl-2; 6.44 with H1299 cell line (read-out: IC50 cell inhibition, H1299); 6.03 at BCL-XL [6] (read-out: IC50 FPA Bcl-XL); 6.23 on Mcl-1; 5.89 on Bfl-1. In series [8] (Homo sapiens, NCI-H460), the pIC50 was 6.40. Moreover, in series [3], the “degraded after 60 days at room temperature” value is given as 10%. For the same compound, the “Plasma stability (T = 1 h)” value in “Plasma stability” amounted to 94%. The “Microsomal Stability (T = 1 h)” value in series [4] turned out to be 87%. At BCL-XL [5], this compound had a pKd of 6.92. Moreover, the MEF/DKO cells killed in series [7] is given as 20-35%. Besides, the Tox with B6Bcl-2 transgenic mice (Bcl-2 transgenic mouse, single ip injection 72 μmol/kg) was 4+. For the same compound, the “1D-^1H NMR” value at BCL-XL [9] was “+++”.
As to `Cc1cc2c(C(=O)NCC(C)c3ccccc3)c(O)c(O)cc2c(O)c1-c1c(C)cc2c(C(=O)NCC(C)c3ccccc3)c(O)c(O)cc2c1O` (stereo not drawn) [Compound 8r, 1,1′,6,6′,7,7′-hexahydroxy-3,3′-dimethyl-N^5,N^5′-bis(2-phenylpropyl)-2,2′-binaphthyl-5,5′-dicarboxamide], the pEC50 in [2] (Homo sapiens, B-cell) is 6.18. Moreover, the “times more potent than Apogossypol, BP3” value in [2] (vs Apogossypol) is given as 7-10. Moreover, the “degraded after 60 days at room temperature” value in series [3] is 10%. The “degraded after 1 hour incubation in rat plasma” value in the series “Plasma stability” (1 hour) is given as 4%. The “Plasma stability (T = 1 h)” value in the series “Plasma stability” is recorded as 96%. The “Microsomal Stability (T = 1 h)” value in series [4] came to 76%. In addition, on BCL-XL [5] (vs Apogossypol), the “times more potent than Apogossypol, ITC Bcl-XL” value amounted to 15. Also, the weight loss entry in the series with Balb/c mice (mouse, in vivo, ip, 50 mg/kg) was “around 13%”. The mortality entry in the series on Balb/c mice (single ip 100, 75, 50, 25 and 12.5 mg/kg, 14 days) is recorded as “All mice were alive after 14 days”. Moreover, the “times more effective than Apogossypol, FP Bcl-XL” value at BCL-XL [6] (vs Apogossypol) worked out at 5. Moreover, the MEF/DKO cells killed in series [7] was 20-35%. The “times more potent than Apogossypol, FP Bfl-1” value at Bfl-1 (vs Apogossypol) is reported as “approximately 10”. In addition, the GI toxicity entry with B6Bcl-2 transgenic mice (B6Bcl-2 transgenic (Balb/c background), mouse, in vivo, 42 mg/kg, 24 h) is on record as “mild signs of GI toxicity”. Further, the “average weight loss of mice” value in the series on B6Bcl-2 transgenic mice (mouse, in vivo, 42 mg/kg) stood at 7.8%. Also, the “percentage of maximum reduction in spleen weight (maximal biological activity)” value in the series on B6Bcl-2 transgenic mice (single ip 72 μmol/kg, maximum shrinkage no more than 50%) is 85-95%. Moreover, in the series with B6Bcl-2 transgenic mice (single mouse, single ip 72 μmol/kg), the spleen weight reduction entry is listed as “more than 40%”. Further, in series [8] (Homo sapiens, NCI-H460), the pIC50 was 6.48. For the same compound, in [8] (vs Apogossypol), the “times more potent than Apogossypol, H460” value is recorded as 7-10. Also, the “1D-^1H NMR” value on BCL-XL [9] was “++”.

Source of the values: patent US8039668B2, “Naphthalene-based inhibitors of anti-apoptotic proteins” (Burnham Institute for Medical Research, priority 2008, dated 2011).
